Test results from patent US20030157583A1, “Methods for determining squalene synthase activity” (priority 2001, published 2003).

T1: truncated squalene synthase (tSqS) (Arabidopsis thaliana, UniProt P53799)
T1 sequence (P53799 1-388 limits assumed): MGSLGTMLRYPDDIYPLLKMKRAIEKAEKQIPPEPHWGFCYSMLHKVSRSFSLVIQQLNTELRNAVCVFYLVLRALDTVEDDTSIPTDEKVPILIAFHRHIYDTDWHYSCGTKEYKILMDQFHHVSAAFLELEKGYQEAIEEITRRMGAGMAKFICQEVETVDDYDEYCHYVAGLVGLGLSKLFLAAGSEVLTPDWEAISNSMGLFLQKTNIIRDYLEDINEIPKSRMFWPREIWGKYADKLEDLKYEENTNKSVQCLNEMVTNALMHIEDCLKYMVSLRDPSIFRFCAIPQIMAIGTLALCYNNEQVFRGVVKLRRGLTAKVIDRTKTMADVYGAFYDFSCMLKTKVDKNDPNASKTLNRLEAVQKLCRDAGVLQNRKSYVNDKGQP

B1: truncated squalene synthase (tSqS) (Arabidopsis thaliana) (protein)
chain: T1 sequence (P53799 1-388 limits assumed)

What was measured:
[1] = biological target: T1, truncated squalene synthase (tSqS); assay: biochemical
From the text: The conversion of the intermediate PSPP into squalene requires magnesium as a cofactor.

[2] = substrate: CC(C)=CCC/C(C)=C/CC/C(C)=C/CO[P@@](=O)(O)OP(=O)(O)O; assay: purified protein, by the assay type; conditions: other: initial velocity vs FPP concentration, 50 ng tSqS, 100 μM NADPH, 10 mM MgCl2, 37° C., pH 7.5

Molecule	IC50 [1] [mM]	Km [2] [µM]
O=C(O)CN(CCN(CC(=O)O)CC(=O)O)CC(=O)O [EDTA]	~8	–
B1	–	42
